For series [1] the following is noted: cumulative dose 450–600 mg/m^2; cited from earlier work.
The target in another series is T1, OATP1A2*3 (Homo sapiens, UniProt P46721, E172D).
T1 sequence (P46721 1-670 E172D): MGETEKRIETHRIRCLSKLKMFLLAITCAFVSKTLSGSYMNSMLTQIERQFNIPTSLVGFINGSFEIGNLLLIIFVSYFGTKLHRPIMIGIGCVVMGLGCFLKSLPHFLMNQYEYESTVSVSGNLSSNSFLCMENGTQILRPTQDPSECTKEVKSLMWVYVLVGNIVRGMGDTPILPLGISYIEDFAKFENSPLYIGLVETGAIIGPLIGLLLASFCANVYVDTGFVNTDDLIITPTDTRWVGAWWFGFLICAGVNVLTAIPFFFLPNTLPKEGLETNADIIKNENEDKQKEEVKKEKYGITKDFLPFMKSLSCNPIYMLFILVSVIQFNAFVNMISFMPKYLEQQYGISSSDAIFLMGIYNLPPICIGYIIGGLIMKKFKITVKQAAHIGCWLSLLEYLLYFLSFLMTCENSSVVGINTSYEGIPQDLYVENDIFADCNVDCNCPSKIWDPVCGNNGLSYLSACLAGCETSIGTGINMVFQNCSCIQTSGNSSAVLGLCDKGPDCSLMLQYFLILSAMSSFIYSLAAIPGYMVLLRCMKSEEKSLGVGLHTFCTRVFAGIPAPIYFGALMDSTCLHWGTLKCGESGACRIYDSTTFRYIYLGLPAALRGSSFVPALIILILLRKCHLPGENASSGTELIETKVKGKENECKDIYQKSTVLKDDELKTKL
Description: in vitro.

Series [2] has as its target T2, OCT2 (Homo sapiens, UniProt O15244).
T2 sequence (O15244 1-555): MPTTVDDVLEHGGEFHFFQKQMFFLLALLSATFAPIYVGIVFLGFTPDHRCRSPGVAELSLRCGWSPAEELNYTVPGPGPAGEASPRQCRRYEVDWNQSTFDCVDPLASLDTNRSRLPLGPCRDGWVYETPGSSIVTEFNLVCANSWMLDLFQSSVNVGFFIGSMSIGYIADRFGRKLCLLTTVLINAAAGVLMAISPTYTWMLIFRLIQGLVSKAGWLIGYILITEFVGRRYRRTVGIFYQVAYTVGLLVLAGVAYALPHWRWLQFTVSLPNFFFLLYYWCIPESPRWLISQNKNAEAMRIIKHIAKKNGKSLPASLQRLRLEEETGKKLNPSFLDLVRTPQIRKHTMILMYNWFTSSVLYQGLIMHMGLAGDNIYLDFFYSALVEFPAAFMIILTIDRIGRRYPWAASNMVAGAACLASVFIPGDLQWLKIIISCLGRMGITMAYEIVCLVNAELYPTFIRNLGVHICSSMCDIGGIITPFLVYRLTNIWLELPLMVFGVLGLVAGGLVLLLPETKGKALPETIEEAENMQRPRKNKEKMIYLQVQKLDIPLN
Conditions: MDCKII-OCT2.
Description: (§1) Cellular uptake studies: For all transport studies, cells were seeded in 24-well plates and incubated in a full growth medium at an initial density of 200,000 cells/well for 3 days. Before starting each transport experiment, cells were washed with a pre-warmed (37 °C) incubation buffer [64]. […] Protein concentration of whole cell lysate was determined to quantify cell density after each experiment using the BCA assay according to the manufacturer’s instructions (Pierce, Rockford, IL, USA).
(§2) Statistical evaluation: All experiments were performed at least three times unless otherwise noted. The OATP1A2*1–*3 and OCT1-3 net uptake was obtained by subtracting the uptake into wild-type cells from that of the transporter-transfected cells. Km and Vmax were assessed using Prism 5.01 (GraphPad Software, San Diego, CA, USA). The differences in the doxorubcin uptake in OATP1A2*1–*3 and in OCT1-3 transfected cells were adjusted to the membranous transporter protein levels in the whole cell lysate. Km and Vmax are presented as arithmetic means ± standard deviation.

For series [3] the following is noted: pH 7.4; cited from earlier work.
The test system of a further series is OCT6. The following applies: OCT6 affinity to doxorubicin; cited from earlier work.
In the next series the target is T3, OCT3 (Homo sapiens, UniProt O75751).
T3 sequence (O75751 1-556): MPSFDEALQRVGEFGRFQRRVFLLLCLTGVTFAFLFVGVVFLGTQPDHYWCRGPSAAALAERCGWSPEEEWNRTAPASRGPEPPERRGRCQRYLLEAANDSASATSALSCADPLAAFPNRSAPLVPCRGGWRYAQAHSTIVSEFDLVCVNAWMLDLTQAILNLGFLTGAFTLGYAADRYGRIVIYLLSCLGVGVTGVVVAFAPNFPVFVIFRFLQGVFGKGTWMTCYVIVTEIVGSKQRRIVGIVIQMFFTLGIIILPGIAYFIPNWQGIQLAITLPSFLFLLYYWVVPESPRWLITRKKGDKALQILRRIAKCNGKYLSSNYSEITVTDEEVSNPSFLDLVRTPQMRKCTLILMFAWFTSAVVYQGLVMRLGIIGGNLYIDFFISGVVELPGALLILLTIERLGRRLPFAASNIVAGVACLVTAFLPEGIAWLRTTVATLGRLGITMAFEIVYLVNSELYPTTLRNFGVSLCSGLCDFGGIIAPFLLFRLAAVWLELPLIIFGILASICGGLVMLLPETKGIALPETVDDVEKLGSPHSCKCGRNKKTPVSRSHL
Briefly: Doxorubicin uptake into MDCKII cells stably expressing OCT3.

For another series, the target named is T4, OCT1 (Homo sapiens, UniProt O15245).
T4 sequence (O15245 1-554): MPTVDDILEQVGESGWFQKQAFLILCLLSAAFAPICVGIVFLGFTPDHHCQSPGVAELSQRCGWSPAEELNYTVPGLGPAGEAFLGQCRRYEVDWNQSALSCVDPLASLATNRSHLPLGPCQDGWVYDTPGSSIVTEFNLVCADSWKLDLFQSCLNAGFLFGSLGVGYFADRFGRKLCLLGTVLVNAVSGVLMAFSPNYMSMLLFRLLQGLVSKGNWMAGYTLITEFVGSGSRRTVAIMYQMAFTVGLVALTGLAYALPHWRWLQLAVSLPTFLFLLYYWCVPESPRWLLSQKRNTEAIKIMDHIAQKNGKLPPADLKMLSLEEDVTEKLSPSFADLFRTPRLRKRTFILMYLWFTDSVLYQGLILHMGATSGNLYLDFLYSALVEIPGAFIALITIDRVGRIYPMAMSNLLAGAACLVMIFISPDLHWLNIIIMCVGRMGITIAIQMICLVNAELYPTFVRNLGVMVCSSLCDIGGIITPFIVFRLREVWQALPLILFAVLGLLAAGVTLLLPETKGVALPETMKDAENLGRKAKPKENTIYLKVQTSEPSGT
Briefly: in vitro. Conditions: mdck.

The conditions of series [4]: during chemotherapy, no reference given, cited from earlier work.
In a further series the test system is OATP1A2*2/*3. Briefly: Doxorubicin uptake clearance by OATP1A2 genetic variants versus wild type. Type of series: cell-based, human. Conditions: OATP1A2*2 and *3 versus OATP1A2*1.
For series [5], the target named is T2, OCT2. Briefly: in vitro. The following applies: mdck.
Description: as §1, §2

Read-outs that look alike come from different tables or passages of the source.

Description for OATP1A2*2/*3: as §1
(§3) Protein abundance of OATP1A2*1–*3 and OCT1–3 were measured by mass spectrometry-based targeted proteomics using a validated LC-MS/MS method as recently described [65].
Statistical evaluation: All experiments were performed at least three times unless otherwise noted. The OATP1A2*1–*3 and OCT1-3 net uptake was obtained by subtracting the uptake into wild-type cells from that of the transporter-transfected cells. Km and Vmax were assessed using Prism 5.01 (GraphPad Software, San Diego, CA, USA). […] Km and Vmax are presented as arithmetic means ± standard deviation.
Description for OATP1A2*3: as §1, §3
200 μL of each cell lysate sample was mixed with 25 μL internal standard (5 µg/mL daunorubicin), 25 μL citric acid (1%), and 400 μL ice-cold acetonitrile for protein precipitation. […] The clear supernatant was transferred to HPLC vials. The measurement and quantitative evaluation were carried out using the LC-MS/MS system QTRAP 4000® (AB SCIEX, Darmstadt, Germany) and the Software Analyst® 1.4 (Applied Biosystems, Darmstadt, Germany).
Statistical evaluation: All experiments were performed at least three times unless otherwise noted. The OATP1A2*1–*3 and OCT1-3 net uptake was obtained by subtracting the uptake into wild-type cells from that of the transporter-transfected cells. […]
Description for OCT1: as §1, §2
Description for OCT3: as §1, §2

For `COc1cccc2c1C(=O)c1c(O)c3c(c(O)c1C2=O)C[C@@](O)(C(=O)CO)C[C@@H]3O[C@H]1C[C@H](N)[C@H](O)[C@H](C)O1` [doxorubicin, Doxorubicin], the “risk of congestive heart failure” value in series [1] is on record as 3–18%. The Km on OATP1A2*3 (HEK293 cells stably expressing OATP1A2*3) was 5.94 ± 3.07 µM; in the series on OCT6, about 5 µM. At OATP1A2*3 (other cell line), this compound displayed a microsomal CLint of 2.32 ± 0.99 µL/min/mg. Moreover, the maximal velocity (Vmax) on OCT2 [2] (doxorubicin 0–100 µmol/L, 3 min, mean ± SD) stood at 37.8 ± 11.1 pmol/mg/min; at OCT3 (MDCKII-OCT3, doxorubicin 0–100 µmol/L, 3 min, mean ± SD), 12.9 ± 3.60 pmol/mg/min. Besides, the “saturation of concentration-dependent OCT2-mediated uptake” value on OCT2 [2] (incubation time 3 min, up to 100 µmol/L) is given as “not saturated”. The “present as cationic moiety” value in series [3] is 89%. Further, the microsomal CLint at 3 min came to 0.99 ± 0.33 µL/min/mg on OCT3 (human, mdck); 4.16 ± 1.1 µL/min/mg at OCT1; 0.5 ± 0.26 µL/min/mg on OCT2 [5]. For the same compound, the “plasma concentrations of doxorubicin” value is recorded as ~ 1 µmol/L in series [4] (conversion of 600 ng/mL) and “up to 600 ng/mL” in [4]. Also, the “diminished cellular uptake clearance by the genetic variants” value with OATP1A2*2/*3 was 51–70%.

A word on the Km: it is the concentration of substrate that gives half-maximal velocity. Usually Vmax stands for the top rate of the reaction or transport when substrate is in excess.

Source of the values: publication PMC8745601 (International Journal of Molecular Sciences, 2021).
